{
  "source": "patent US20230047816A1",
  "about": "(priority 2018, published 2023)",
  "key": {"[1]": {"test_system": "mouse cortical primary neurons", "experiment": "β-amyloid-induced neuronal apoptosis (annexin V/7-AAD flow cytometry)", "format": "cell-based", "settings": "β-amyloid 24 hours", "description": "(§1) Primary cultures of C57BL/6 mice cortical neurons were prepared from fetal animals of 14.5 days of gestation, seeded at 1.8·10^5 cells/cm^2 in plastic plates coated with poly-D-lysine (10 mg/ml) and incubated in Neurobasal (Life Technologies) supplemented with 2 mM glutamine, 5 mM of glucose, 0.25 mM pyruvate and 2% B27 supplement (Life Technologies). Cells were incubated at 37° C. in a humidified 5% CO2-containing atmosphere. At 72 hours after plating, medium was replaced using Neurobasal (Life Technologies) supplemented with 2 mM glutamine, 5 mM glucose, 0.25 mM pyruvate and 2% B27 supplement (Life Technologies) minus antioxidants (MAO; i.e., lacking vitamin E, vitamin E acetate, superoxide dismutase, catalase and glutathione). […] APC/C-conjugated annexin-V and 7-amino-actinomycin D (7-AAD) (Becton Dickinson Biosciences, BDB, San Jose, Calif., USA) were used to determine quantitatively the percentage of apoptotic neurons by flow cytometry. Cells were stained with annexin V-APC and 7-AAD, following the manufacturer's instructions, and were analysed on a FACScalibur™ flow cytometer (15 mW argon ion laser tuned at 488 nm; CellQuest software, Becton Dickinson Biosciences) using the CellQuest software (BDB). Both GFP+ and GFP− cells were analyzed separately, and the annexin V-APC-stained cells that were 7-AAD-negative were considered to be apoptotic."}, "[2]": {"test_system": "mouse primary cortical neurons", "experiment": "Apoptosis upon glutamate or NMDA (annexin V+/7AAD-)", "format": "cell-based", "settings": "for prevention of apoptotic neuronal death: inhibitor 0.01 μM", "description": "(§2) To directly test the ability of the PFKFB3 inhibitor, AZ67 and Compound 1, to protect against the damage caused by excitotoxic stimuli, mouse primary cortical neurons were subjected to a short-term exposure to NMDA or glutamate (100 μM for 10 minutes), a well-known excitotoxic stimuli (Almeida and Bolahos, 2001). For NMDAR activation, neurons at 8 days in vitro were incubated with 100 μM glutamate (plus 10 μM glycine) or 100 μM NMDA (plus 10 μM glycine) for 10 minutes. Neurons were then washed and further incubated in culture medium with the PFKFB3 inhibitors for 24 hours. A colorimetric NADP/NADPH assay kit (Abcam) was used. Cells were resuspended in 500 μl of NADP/NADPH extraction buffer, vortexed and centrifuged at 14,000 rpm for 5 minutes to remove insoluble material. The supernatant was used for NADPH +plus NADP+ measurement. NADPH was determined in 200 μl of the supernatant, after heatinged […] 60° C. for 30 minutes to decompose NADP+. Actual NADP and NADPH+ concentrations were calculated by extrapolating values to a NADPH standard curve (0-100 pmol/well).\nTo show this, neurons were treated with glutamate of NMDA, and apoptosis assessed by annexin V+/7AAD− staining using flow cytometry, as described above."}, "[3]": {"test_system": "primary neurons", "experiment": "Mitochondrial ROS in NMDA and glutamate excitotoxic models", "format": "cell-based", "settings": "0.01 μM, triggered by NMDA and glutamate, FIG. 4B"}, "[4]": {"test_system": "mouse primary cortical neurons", "experiment": "Lactate release (glycolysis) upon excitotoxic stimuli", "format": "cell-based", "settings": "NMDA or glutamate 100 μM 10 minutes, then inhibitor 0.01 μM 24 hours", "description": "as §2, with “Cells were resuspended in 500 μl of NADP/NADPH extraction buffer, vortexed and centrifuged at 14,000 rpm for 5 minutes to remove insoluble material. The supernatant was used for NADPH +plus NADP+ measurement.” left out\nIn view that this treatment causes PFKFB3 stabilization leading to glycolytic activation and PPP inhibition (Rodriguez-Rodriguez et al., 2012), we reasoned that PFKFB3 inhibition by AZ67 and Compound 1 could abrogate these effects. […] To directly test whether this effect is associated with the control of PFKFB3 on glycolysis, we next assessed the glycolytic-end product, lactate, released to the incubation medium."}, "[5]": {"test_system": "Cln7Aex2 mice", "experiment": "Cln7Aex2 mice in vivo (cortex pathology, hindlimb paralysis)"}, "[6]": {"test_system": "influenza A H1N1 in MDCK", "format": "cell-based", "settings": "0, 0.1 μM, 1 μM, 10 μM and 100 μM"}, "[7]": {"test_system": "neurons from Cln7 knock out (KO) mice", "experiment": "In vitro model of Batten disease, active Caspase-3 Western blot", "format": "cell-based, mouse", "settings": "10 nM, 24 hours", "description": "Primary cultures of C57BL/6J WT and Cln7Δex2 mice cortical neurons were prepared from fetal animals of 14.5 days of gestation, seeded at 1.8·10^5 cells/cm2 in plastic plates coated with poly-D-lysine […] and incubated in Neurobasal (Life Technologies) supplemented with 2 mM glutamine, 5 mM of glucose, 0.25 mM pyruvate and 2% B27 supplement (Life Technologies). Cells were incubated at 37° C. in a humidified 5% CO2-containing atmosphere. At 72 hours after plating, medium was replaced using Neurobasal (Life Technologies) supplemented with 2 mM glutamine, 5 mM glucose, 0.25 mM pyruvate and 2% B27 supplement (Life Technologies) minus antioxidants (MAO; i.e., lacking vitamin E, vitamin E acetate, superoxide dismutase, catalase, and glutathione). Six days after the plating medium was replaced again. Cells were used at day 9.\nNeurons were incubated with 10 nM or vehicle for 24 hours and apoptosis was evaluated by measuring the level of active Caspase-3 form using Western blot. Neurons were lysed in RIPA buffer (2% sodium dodecylsulphate, 2 mM EDTA, 2 mM EGTA and 50 mM Tris pH 7.5), supplemented with protease and phosphatase inhibitor cocktail (100 μM phenylmethylsulfonyl fluoride, 50 μg/ml antipapain, 50 μg/ml pepstatin, 50 μg/ml amastatin, 50 μg/ml leupeptin, 50 μg/ml bestatin, 1 mM o-vanadate, 50 mM NaF, and 50 μg/ml soybean trypsin inhibitor) and boiled for 5 min. […]"}, "[8]": {"test_system": "mouse cortical primary neurons", "experiment": "MG132-induced neuronal apoptosis (annexin V/7-AAD flow cytometry)", "format": "cell-based", "settings": "MG132 24 hours; inhibitor 0.01 μM", "description": "as §1"}, "[9]": {"settings": "Cln7Aex2 mice in vivo, FIGS. 15A-15C"}},
  "note": "“Also recorded” adds a separate entry of the source.",
  "data": [
    {"smiles": "Cc1noc(C)c1Cn1cc(C#N)c2cc(Oc3ccc(NC(=O)[C@@H]4CCCN4)cc3)ccc21", "note": "[AZ67, (2S)-N-[4-({3-cyano-1-[(3,5-dimethyl-1,2-oxazol-4-yl)methyl]-1H-indol-5-yl}oxy)phenyl]pyrrolidine-2-carboxamide]", "values": [
      {"measurement": "prevention of apoptotic neuronal death caused by β-amyloid", "setting": "[1]", "value": "~60", "unit": "%"},
      {"measurement": "protection from apoptosis", "setting": "[2]; NMDA and glutamate", "value": "protect mouse primary cortical neurons from apoptosis"},
      {"measurement": "prevention of apoptotic neuronal death", "setting": "[2]; NMDA", "value": 90, "unit": "%"},
      {"measurement": "prevention of apoptotic neuronal death", "setting": "[2]; glutamate", "value": 76, "unit": "%"},
      {"measurement": "increase in mitochondrial ROS", "setting": "[3]", "value": "significantly prevented"},
      {"measurement": "lactate released (activation of glycolysis)", "setting": "[4]", "value": "fully prevented; also recorded: prevent the increase in lactate production"},
      {"measurement": "accumulation of SCMAS in the cortex", "setting": "[5]; [9]", "value": "prevented the accumulation"},
      {"measurement": "accumulation of lipofuscin in the cortex", "setting": "[5]; [9]", "value": "prevented the accumulation"},
      {"measurement": "accumulation of reactive astroglia in the cortex", "setting": "[5]; [9]", "value": "prevented the accumulation"},
      {"measurement": "hindlimb paralysis", "setting": "[5]; Cln7Aex2 mice, FIG. 15D", "value": "prevented"},
      {"measurement": "antiviral activity (anti-HA immunostain)", "setting": "[6]", "value": "demonstrate antiviral activity"},
      {"measurement": "apoptosis level (active Caspase-3)", "setting": "[7]", "value": "significantly reduced"},
      {"measurement": "prevention of neuronal apoptosis caused by MG132", "setting": "[8]", "value": "~45", "unit": "%"}
    ]}
  ]
}
